The record followed here is US10508108B2, “Tricyclic compounds as inhibitors of mutant IDH enzymes” (Merck Sharp & Dohme Corp., priority 2014, dated 2019).

The test addresses R132H mutant IDH1 enzyme (Homo sapiens (Human), UniProt O75874, R132H). The test is described as follows: R132H IDH1 Enzymatic Assay. Type of test: biochemical. To be noted: R132H mutant IDH1 enzyme 1.5 nM final; luminescence (Kinase-GLO) readout. On the procedure: R132H IDH1 Enzymatic Assay
Luminescence is measured using a PerkinElmer Envision plate reader.
Background: In Kinase-Glo more light means more ATP remaining.

SMILES strings stand for the structures.

Usually IC50 stands for the midpoint of a concentration-inhibition curve. A lower IC50 goes with higher potency.

Chain of R132H mutant IDH1 enzyme (O75874 whole entry R132H): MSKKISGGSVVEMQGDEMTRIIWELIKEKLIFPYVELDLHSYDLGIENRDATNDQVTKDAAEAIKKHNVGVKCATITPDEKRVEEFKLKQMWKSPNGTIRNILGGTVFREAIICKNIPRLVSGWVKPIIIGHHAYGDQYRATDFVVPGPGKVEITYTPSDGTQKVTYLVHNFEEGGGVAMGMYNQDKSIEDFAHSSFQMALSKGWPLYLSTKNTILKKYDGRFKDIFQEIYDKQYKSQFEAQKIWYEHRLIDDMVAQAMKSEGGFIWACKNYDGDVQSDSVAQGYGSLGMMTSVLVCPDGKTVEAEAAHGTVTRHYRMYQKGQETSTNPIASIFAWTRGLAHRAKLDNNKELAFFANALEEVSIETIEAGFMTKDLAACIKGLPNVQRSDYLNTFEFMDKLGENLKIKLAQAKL

In turn, `COC1CC2CCC(C1)C2C(=O)N1Cc2cccnc2Nc2ccc(N3CCOCC3)cc21` (centres unmarked) [Example 1, 6-{[(3r,8r)-3-Methoxybicyclo[3.2.1]oct-8-yl]carbonyl}-8-morpholin-4-yl-6,11-dihydro-5H-pyrido[2,3-b][1,5]benzodiazepine] gave an IC50 of 1050 nM.
Compound `O=C(C1C[C@H]2COC[C@@H](C1)N2CC(F)(F)F)N1Cc2cccnc2Nc2ccc(N3C[C@H]4CC[C@@H]3CO4)cc21` (stereo partly drawn) [Example 129, (8-((1R,4R)-2-Oxa-5-azabicyclo[2.2.2]octan-5-yl)-5,11-dihydro-6H-benzo[b]pyrido[2,3-e][1,4]diazepin-6-yl)((1R,5S)-9-(2,2,2-trifluoroethyl)-3-oxa-9-azabicyclo[3.3.1]nonan-7-yl)methanone] had an IC50 of 6 nM.
The result for `O=C(C1C[C@H]2COC[C@@H](C1)N2CC(F)(F)F)N1Cc2cccnc2Nc2ccc(N3C[C@@H]4CC[C@H]3CO4)cc21` (stereo partly drawn) [Example 130, (8-((1 S,4S)-2-oxa-5-azabicyclo[2.2.2]octan-5-yl)-5,11-dihydro-6H-benzo[b]pyrido[2,3-e][1,4]diazepin-6-yl)((1R,5S)-9-(2,2,2-trifluoroethyl)-3-oxa-9-azabicyclo[3.3.1]nonan-7-yl)methanone] reads 5 nM.
The result for `COC1CC2CCC(C1)C2C(=O)N1Cc2cccnc2Nc2ccc(N3CCOCC3)cc21` (centres unmarked) [Example 2, 6-{[(3s,8s)-3-methoxybicyclo[3.2.1]oct-8-yl]carbonyl}-8-morpholin-4-yl-6,11-dihydro-5H-pyrido[2,3-b][1,5]benzodiazepine] reads 226 nM; that for `CC(C)[C@@H]1COC(=O)N1c1ccc2c(c1)N(C(=O)[C@]13C[C@H]4C[C@H](C[C@H](C4)C1)C3)Cc1cccnc1N2` [Example 119, (4R)-4-(1-Methylethyl)-3-{6-[(3S,5S,7S)-tricyclo[3.3.1.1˜3,7˜]dec-1-ylcarbonyl]-6,11-dihydro-5H-pyrido[2,3-b][1,5]benzodiazepin-8-yl}-1,3-oxazolidin-2-one], 22 nM.
